In PubChem BioAssay (NCI):
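Test compounds were applied to cells in 96-well plates for 48 hours at 5 doses. GI50: concentration for 50% inhibition of growth. TGI: total growth inhibition.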

Tests used:
Assay in all cases: NCI tumour cell line growth inhibition, 48 h
[1] = tested on: COLO 205 colon
[2] = tested on: T-47D breast
[3] = tested on: KM12 colon
[4] = tested on: SF-268 CNS
[5] = tested on: TK-10 renal
[6] = tested on: MCF7 breast
[7] = tested on: HOP-62 NSCLC
[8] = tested on: CCRF-CEM leukemia
[9] = tested on: LOX IMVI melanoma
[10] = tested on: HS 578T breast

Row | Structure (SMILES) | GI50 [1] | TGI [1] | GI50 [2] | TGI [2] | GI50 [3] | TGI [3] | GI50 [4] | TGI [4] | GI50 [5] | TGI [5] | GI50 [6] | TGI [6] | GI50 [7] | TGI [7] | GI50 [8] | TGI [8] | GI50 [9] | TGI [9] | GI50 [10] | TGI [10]
1 | O=C1C(=O)c2ccccc2C(O)=C1CCCc1ccc(C2CCCC2)cc1 | 6.82 µM | 54.3 µM | 7.21 µM | 98 µM | 5.1 µM | 25.1 µM | 5.1 µM | 51.5 µM | 6.99 µM | 34.1 µM | 4.21 µM | 21.1 µM | 8.04 µM | 23.6 µM | 4.62 µM | 30.3 µM | 3.16 µM | 9.22 µM | 20.6 µM | 85.1 µM
2 | CN1CC[C@]2(c3cccc(O)c3)CC(=O)/C(=C/c3ccccc3)[C@H]1C2 | 3.06 µM | 8.43 µM | 2.57 µM | 7.44 µM |  | 13.9 µM | 6.04 µM | 18.2 µM | 6.32 µM | 13.2 µM |  | 10.4 µM | 3.21 µM | 10.8 µM | 2.53 µM | 9.36 µM |  | 4.1 µM |  | 12.1 µM
3 | O=C1C=CC(=Nc2ccccc2)c2ccccc21 |  | 20.3 µM |  | 47.9 µM |  | 25.6 µM |  | 24.8 µM |  | 31.6 µM |  | 21.4 µM |  | 25.3 µM |  | > 100 µM |  | 16.9 µM |  | 88.6 µM
4 | CSCC[C@H](NC(=O)[C@H](CC(C)C)NC(=O)[C@@H](Cc1ccccc1)NC(=O)CNC(=O)[C@@H](NC(=O)[C@H](C)NC(=O)[C@H](Cc1c[nH]c2ccccc12)NC(=O)[C@H](CCC(N)=O)NC(=O)[C@H](N)CC(N)=O)C(C)C)C(N)=O |  | > 12.5 µM |  | > 12.5 µM |  | > 12.5 µM |  | > 12.5 µM |  | > 12.5 µM |  | > 12.5 µM |  | > 12.5 µM |  | > 12.5 µM |  | > 12.5 µM |  | > 12.5 µM
5 | O=C1CCCCC=C1C[N+](=O)[O-] | 11.6 µM | 39.7 µM | 26.6 µM | 88.1 µM | 45.1 µM | > 100 µM | 30.8 µM | > 100 µM | 24.7 µM | 54.8 µM | 20 µM | 55.1 µM | 15.1 µM | 45.6 µM | 5.7 µM | 23.3 µM | 18.4 µM | 39.1 µM | 41.8 µM | > 100 µM
6 | c1ccc(Nc2nc(-c3ccccn3)cs2)nc1 | 0.411 µM | 17.5 µM | 0.698 µM | > 100 µM | 0.381 µM | 15.9 µM | 0.346 µM | > 45.5 µM | 0.573 µM | > 100 µM | 0.508 µM | > 100 µM | 0.619 µM | > 100 µM | 0.259 µM | > 29.6 µM | 0.255 µM | 6.67 µM | 2.91 µM | > 100 µM
7 | Cc1[nH]c(C(=O)Nc2ccccc2OC2CCNCC2)c(Cl)c1Cl | 0.856 µM | 1.63 µM | 0.987 µM | 2.09 µM | 1.28 µM | 3.16 µM | 0.76 µM | 1.65 µM | 0.841 µM | 1.62 µM | 0.882 µM | 1.68 µM | 0.812 µM | 1.63 µM | 1.37 µM | 3.89 µM | 0.882 µM | 1.61 µM | 0.898 µM | 1.9 µM
8 | O=S(=O)(c1ccc(Br)cc1)N1CCN(S(=O)(=O)c2ccc(Br)cc2)CC1 |  | > 100 µM |  | > 100 µM |  | > 100 µM |  | > 100 µM |  | > 100 µM |  | > 100 µM |  | > 100 µM |  | > 100 µM |  | > 100 µM |  | > 100 µM
9 | COc1cc(/C=C2\Oc3cc(OCCCN4CCCC4)ccc3C2=O)cc(OC)c1 | 2.58 µM | 8.3 µM | 1.93 µM | 4.51 µM | 4.82 µM | 17.7 µM | 6.1 µM | 23.9 µM | 11.4 µM | 25.4 µM | 2.94 µM | 13.4 µM | 3.68 µM | 15.3 µM | 2.76 µM | 10.4 µM | 1.6 µM | 3.05 µM | 5.15 µM | 25.6 µM
10 | CCC(CCC(C)C1CCC2C3CC=C4CC(OC5OC(CO)C(O)C(O)C5O)CCC4(C)C3CCC12C)C(C)C (stereo not given) |  | > 100 µM |  | > 100 µM |  | > 100 µM |  | > 100 µM |  | > 100 µM |  | > 100 µM |  | > 100 µM |  | > 100 µM |  | > 100 µM |  | > 100 µM
11 | COc1cc2nc(-c3ccc(Cl)cc3)cc(OCCCN3CCCC3)c2cc1OC | 0.459 µM | 3.12 µM | 1.02 µM | 10.5 µM | 2.46 µM | 10.2 µM | 2.53 µM | 15.5 µM | 2.33 µM | 7.41 µM | 1.33 µM | 3.07 µM | 1.38 µM | 10.6 µM | 2.14 µM | 7.09 µM | 0.191 µM | 0.446 µM | 1.89 µM | 6.68 µM
12 | COc1ccc2c(c1)C1OCCNC1CC2 (stereo not given) |  | > 100 µM |  | > 100 µM |  | > 100 µM |  | > 100 µM |  | > 100 µM |  | > 100 µM |  | > 100 µM |  | > 100 µM |  | > 100 µM |  | > 100 µM
13 | CCCCCCC/C=C/[C@H]1O[C@]2(O)C(=O)C=C3C[C@@H](O[C@@H]4O[C@H](CO)[C@@H](O)C(O)[C@@H]4O)C[C@@H]3[C@H]2C=C1C (stereo not given in full) | 5.56 µM | 11.8 µM | 0.919 µM | 5.34 µM | 3.71 µM | 8.65 µM | 4.47 µM | 10.3 µM | 5.51 µM | 11 µM | 1.05 µM | 7.88 µM |  |  | 1.04 µM | 4.9 µM | 0.677 µM | 1.61 µM | 5.5 µM | 28.3 µM
14 | CO[C@]12C=C/C(=C(/C(=O)OCc3cccnc3)C(=O)CCCCCCCC[C@@]3(OC)C=C/C(=C(/C(=O)OCc4cccnc4)C(=O)CCCCCCCC1)O3)O2 | 1.49 µM | 5.06 µM | 2.21 µM | > 50 µM | 1.03 µM | 2.38 µM | 1.47 µM | 6.53 µM | 2.93 µM | 18.9 µM | 0.504 µM | 8.89 µM |  |  | 0.741 µM | 7.8 µM | 0.585 µM | 1.6 µM | 2.08 µM | > 50 µM
15 | O=c1c2cccc(F)c2sc2c(N3CCNCC3)nc3ccccc3c12 | 1.43 µM | 3.17 µM | 1.67 µM | 3.59 µM | 1.65 µM | 3.17 µM | 1.55 µM | 3.26 µM |  |  | 1.17 µM | 2.66 µM | 1.38 µM | 3.1 µM | 1.33 µM | 3.18 µM | 1.42 µM | 2.81 µM | 1.62 µM | 3.66 µM
